From PubChem BioAssay AID1626 (SRMLSC, 2009) come the findings set out here.

The assay has as its system M. tuberculosis H37Rv growth inhibition. Nature of the assay: M. tuberculosis H37Rv growth inhibitors, H37Rv strain (AID 1626). The note with it: for IC90: measured here: IC90 against H37Rv; for CC50: measured here: Vero cell cytotoxicity.

For orientation: IC90 means the concentration needed for an effect of 90%. Usually IC50 stands for the concentration needed to halve the response being measured. What is called CC50 is the concentration at which the toxic effect on the cells reaches its halfway point.

Each structure is given as a SMILES string.

In turn, `Cc1nc2ccc(NC(=O)C(F)(F)F)cc2o1` gave a concentration for an effect of 90% (IC90) of more than 100 µM.
As to `Cc1ccc(C(=O)/C=C/C(=O)c2ccc(C)cc2)cc1`, the 50% inhibitory concentration (IC50) was 5.49 µM, the 90% effect concentration (IC90) was 9.24 µM and the 50% cytotoxic concentration (CC50) is more than 40 µM.
`CCOC(=O)c1ccc(NC(=O)CCc2nc(-c3cccc(C)c3)no2)cc1`: the IC50 is 2.76 µM and the IC90 is more than 100 µM.
For `Nc1ccc(C(=O)c2cccs2)cc1`, the IC50 is 22.1 µM and the IC90 is more than 100 µM.
With `COc1cnc(-c2ccccn2)nc1Sc1ccccc1`, the IC50 was 2.66 µM, the concentration for an effect of 90% (IC90) is 4.96 µM and the 50% cytotoxic concentration (CC50) worked out at 8.62 µM.
In the case of `Cc1ccc(-c2csc3ncnc(Oc4ccc5c(C)cc(=O)oc5c4)c23)cc1`, the IC50 was less than 0.195 µM, the IC90 is more than 100 µM and the CC50 is more than 40 µM.
On to `CCOC(=O)c1sc2nc(C)[nH]c(=S)c2c1C`, for which the half-inhibitory concentration (IC50) was 39.1 µM and the 90% effect concentration (IC90) was more than 100 µM.
Consider `O=c1[nH]c(-c2ccccn2)nc2sc(-c3ccccc3)cc12`, for which the IC50 was less than 0.391 µM, the IC90 amounted to 0.553 µM and the CC50 turned out to be 2.2 µM.
For `O=Cc1ccc(O)c2ncccc12`, the half-inhibitory concentration (IC50) is 0.378 µM, the IC90 turned out to be 0.549 µM and the 50% cytotoxic concentration (CC50) stood at 7.88 µM.
Turning to `O=C(COC(=O)C1COc2ccccc2O1)NC(=O)Nc1ccc2c(c1)OCCO2` (centres undefined), the IC90 is more than 100 µM.
Consider `c1cc2c(cc1C1CCCCC1)c1c3n2CCCNC3CCC1` (centres undefined), for which the concentration for half-maximal inhibition (IC50) is 6.06 µM, the concentration for an effect of 90% (IC90) is 6.63 µM and the cytotoxic concentration (CC50) is 6.99 µM.
With `Cc1ccc(-c2nsc(SCC(=O)Nc3ccc4c(c3)OCO4)n2)cc1`, the 50% inhibitory concentration (IC50) was 0.892 µM and the concentration for an effect of 90% (IC90) worked out at 2.51 µM.
In the case of `O=C(Nc1nc(-c2ccccn2)cs1)C12CC3CC(CC(O)(C3)C1)C2`, the 50% inhibitory concentration (IC50) was 3.6 µM, the IC90 was found to be 7.8 µM and the 50% cytotoxic concentration (CC50) is more than 40 µM.
Turning to `COc1cnc(-c2ccccn2)nc1Sc1ccccc1Cl`, the IC50 is 1.94 µM, the 90% effect concentration (IC90) stood at 6.23 µM and the half-maximal cytotoxic concentration (CC50) stood at 7.16 µM.
Turning to `CC[n+]1c(/C=C2\Sc3ccccc3N2C)ccc2cccc(C)c21`, the half-maximal inhibitory concentration (IC50) is 1.01 µM, the 90% effect concentration (IC90) is 1.4 µM and the cytotoxic concentration (CC50) stood at 2.41 µM.
Regarding `Cc1oc2c(c1C(=O)Nc1cccc3ccccc13)CCCC2`, the IC50 is 3.58 µM and the IC90 came to 7.71 µM.
Consider `COc1cccc2sc(Nc3nnc(-c4ccc(F)cc4)o3)nc12`, for which the IC50 is 9.19 µM, the IC90 was 11.8 µM and the half-maximal cytotoxic concentration (CC50) stood at 16 µM.
As for `c1ccc(-c2nc(N3CCCCCC3)c3ccccc3n2)nc1`, the concentration for half-maximal inhibition (IC50) is 0.304 µM, the concentration for an effect of 90% (IC90) came out at 0.318 µM and the half-maximal cytotoxic concentration (CC50) stood at 4.21 µM.
With `COc1ccc(SN=C2C(C)=CC(=O)C=C2C)cc1`, the IC50 was 11 µM and the IC90 stood at 12.3 µM.
For `COC(=O)C(C)Oc1ccc(-c2nccc(-c3cccs3)n2)cc1` (centres undefined), the 50% inhibitory concentration (IC50) is 0.829 µM and the concentration for an effect of 90% (IC90) came out at 2.74 µM.
For `OC(COC(c1ccc(Cl)cc1)c1ccc(Cl)cc1)CN1CCN(c2ccccn2)CC1` (centres undefined), the half-inhibitory concentration (IC50) was 9.79 µM, the concentration for an effect of 90% (IC90) was determined as 28.3 µM and the cytotoxic concentration (CC50) worked out at 35.3 µM.
`CCOC(=O)c1ccc(N=C(C)c2c(O)[nH]c(=O)[nH]c2=O)cc1`: the IC90 was more than 100 µM.
`Nc1ccc(N=Nc2ccccc2)cc1` showed an IC90 of more than 100 µM.
In turn, `Fc1cccc(-c2cc3nc(-c4ccccc4)cc(N4CCC5(CC4)OCCO5)n3n2)c1` had an IC90 of more than 100 µM.
In the case of `O=C(/C=C/Sc1ccccc1)c1ccc(Cl)cc1`, the IC50 is 6.43 µM, the concentration for an effect of 90% (IC90) was 11.2 µM and the CC50 was 26.1 µM.
On to `CCCCn1c(NC(=O)C2CCCCC2)nc2ccccc21`, for which the concentration for half-maximal inhibition (IC50) was 0.881 µM, the IC90 was more than 100 µM and the CC50 amounted to 35 µM.
With `Cc1cc(NC(=O)c2c(F)cccc2F)n(-c2nc3ccccc3[nH]2)n1`, the IC50 is 11.3 µM, the IC90 is 21.2 µM and the cytotoxic concentration (CC50) was 35.7 µM.
As to `CN(C)c1ccc(O)c2c1CC1CC3[C@@H](N(C)C)C(=O)C(C(N)=O)=C(O)[C@]3(O)C(=O)C1=C2O` (some centres undefined), the 50% inhibitory concentration (IC50) is 3.14 µM, the IC90 turned out to be 7.87 µM and the CC50 was more than 40 µM.
In the same order, the values of `COc1ccccc1/C=C/C(=O)Oc1cccc2cccnc12` are 2.8 µM, 3.05 µM and 37.9 µM.
As to `CCOC(=O)N1CCN(C(=O)CSc2nnc(-c3cc(OC)cc(OC)c3)o2)CC1`, the 50% inhibitory concentration (IC50) was 2.82 µM and the IC90 came to 7.03 µM.
Regarding `O=c1nc2c(O)cccn2c2c1c(=O)[nH]c1ccccc12`, the IC50 was 6.69 µM and the IC90 is 12.4 µM.
As to `Cc1ccc(C(=O)CC(=O)COc2ccc(Cl)cc2)cc1`, the half-inhibitory concentration (IC50) was 6.66 µM, the 90% effect concentration (IC90) is more than 100 µM and the half-maximal cytotoxic concentration (CC50) is more than 40 µM.
Compound `CCOc1ccc(N=CC2=C(O)CC(C)(C)CC2=O)cc1` yielded a concentration for an effect of 90% (IC90) of more than 100 µM.
`CCOc1ccc(N=Cc2c(O)n(-c3cccc(C)n3)c(=O)c3ccccc23)cc1`: the 50% inhibitory concentration (IC50) is 14.7 µM and the concentration for an effect of 90% (IC90) was more than 100 µM.
For `COc1ccc(-c2noc(CCC(=O)Nc3ccc(C)c(C)c3)n2)cc1`, in that order: 22.6 µM and more than 100 µM.
Regarding `COc1cc(NC(=O)c2c(F)c(F)c(F)c(F)c2F)c(OC)cc1Cl`, the IC50 is 0.738 µM, the IC90 was more than 100 µM and the CC50 is more than 40 µM.
In the case of `CC1CC(C)CN(C(=O)c2ccc(CNc3c(N4CCCC4)c(=O)c3=O)cc2)C1` (centres undefined), the IC50 was 1.46 µM and the IC90 worked out at 1.64 µM.
Consider `CCOC(=O)c1ccc(N/C=C2/CCCC(C)C2=O)cc1` (centres undefined), for which the concentration for half-maximal inhibition (IC50) is 10.9 µM and the concentration for an effect of 90% (IC90) was more than 100 µM.
With `Cc1cc(C)nc(-n2nc(C)cc2Nc2ccccc2)n1`, the IC50 is 3.27 µM, the concentration for an effect of 90% (IC90) came to 13.6 µM and the CC50 is more than 40 µM.
As to `CCCOC(=O)c1ccc(NC(=O)C2CCCO2)cc1` (centres undefined), the concentration for half-maximal inhibition (IC50) was 10.3 µM and the 90% effect concentration (IC90) is more than 100 µM.
For the compound `COc1ccc(Nc2nc(C)c3ccccc3n2)cc1`, the CC50 is more than 40 µM.
Consider `CCOC(=O)c1c(C)n(C)c2ccc(OC(C)C(=O)OC)cc12` (centres undefined), for which the IC50 was 8.04 µM and the IC90 was 14.4 µM.
Turning to `CN1CCN(CCCNC(=O)c2ccc(/C=C3\Sc4ccccc4N(Cc4ccc(F)cc4)C3=O)cc2)CC1`, the IC50 is 6.38 µM, the IC90 turned out to be 11.3 µM and the half-maximal cytotoxic concentration (CC50) stood at 12.5 µM.
Regarding `Cn1c(C(C#N)C(=O)c2ccco2)nc2ccccc21` (centres undefined), the concentration for half-maximal inhibition (IC50) is 6.99 µM and the IC90 is more than 100 µM.
As for `Cc1ccccc1-c1cc(C(=O)Nc2nc3c(s2)CCCC3)c2ccccc2n1`, the half-maximal inhibitory concentration (IC50) was 4.41 µM, the concentration for an effect of 90% (IC90) was found to be 12.7 µM and the CC50 is more than 40 µM.
Regarding `CCOC(=O)c1ccc(NC(=O)Cn2cccc2)cc1`, the concentration for an effect of 90% (IC90) was more than 100 µM.
For the compound `O=C1N(c2ccc3c(c2)OCCO3)C(c2ccccc2)C1(F)F` (centres undefined), the IC50 is 2.57 µM and the 90% effect concentration (IC90) stood at 7.34 µM.
For the compound `O=c1cc(-c2ccccc2)nc(N2CCN(Cc3ccc4c(c3)OCO4)CC2)[nH]1`, the half-maximal inhibitory concentration (IC50) is 89 µM and the IC90 is more than 100 µM.
`Cc1nn(-c2ccccc2)c(Cl)c1/C=N/O` displayed an IC90 of more than 100 µM.
As for `COc1ccc(NC2=NCC(Cc3ccc(Br)cc3)S2)cc1` (centres undefined), the concentration for half-maximal inhibition (IC50) is 10.2 µM, the IC90 was determined as 15.9 µM and the CC50 was more than 40 µM.
Regarding `O=C(NCc1nc(-c2ccc(C(F)(F)F)cc2)no1)Nc1cc(Cl)cc(Cl)c1`, the half-inhibitory concentration (IC50) is 5.74 µM, the IC90 was determined as 10.6 µM and the 50% cytotoxic concentration (CC50) was 12.6 µM.
Regarding `CSc1ccc(/C=C/C(=O)c2ccc(NC(=O)Cc3ccccc3)cc2)cc1`, the half-inhibitory concentration (IC50) is 4.66 µM, the 90% effect concentration (IC90) was more than 100 µM and the CC50 is more than 40 µM.
For the compound `N=C(N)SCc1cn(-c2ccccc2)nc1-c1ccc(Br)cc1`, the IC50 is 6.8 µM, the IC90 came out at 9.39 µM and the cytotoxic concentration (CC50) was 14.6 µM.
In the same order, the values of `COC(=O)CSc1nc(N)c2c3c(sc2n1)C(c1ccccc1)SC(c1ccccc1)C3` (centres undefined) are 14.4 µM, more than 100 µM and 7.1 µM.
Consider `Cc1cccc(NC(=O)/C=C/c2ccc([N+](=O)[O-])s2)c1`, for which the 50% inhibitory concentration (IC50) is less than 0.391 µM, the IC90 was less than 0.391 µM and the half-maximal cytotoxic concentration (CC50) is 6.99 µM.
`Cc1ncn(-c2ccc(C(=O)Oc3ccccc3)cn2)n1`: the 50% inhibitory concentration (IC50) was 12.3 µM, the 90% effect concentration (IC90) is more than 100 µM and the half-maximal cytotoxic concentration (CC50) worked out at 35.3 µM.
`COc1cccc2sc(N(CCCN(C)C)C(=O)C(c3ccccc3)c3ccccc3)nc12`: the IC50 is 13.5 µM, the IC90 was 18.4 µM and the CC50 turned out to be 21.8 µM.
With `O=C(Cc1cccs1)Nc1cccc(-c2nc3cc4ccccc4cc3[nH]2)c1`, the 50% inhibitory concentration (IC50) is 15.5 µM, the IC90 was found to be 24.3 µM and the CC50 stood at 21 µM.
`Cc1cccc(NC(=O)c2nc[nH]c2C(=O)N[C@@H](C)C(=O)OCc2ccccc2)c1`: the half-maximal inhibitory concentration (IC50) was 59.9 µM and the IC90 is more than 100 µM.
Regarding `CC(C)(C)c1cc(NCCCn2ccnc2)n2ncc(-c3ccccc3)c2n1`, the IC50 is 1.76 µM, the 90% effect concentration (IC90) was determined as 2.89 µM and the CC50 came to 15.9 µM.
For `COc1cccc2c1C(=O)c1c(O)c3c(c(O)c1C2=O)C[C@@](O)(C(=O)CO)C[C@@H]3O[C@H]1C[C@H](N)[C@H](O)[C@H](C)O1`, in that order: 13 µM, more than 100 µM and 7.25 µM.
Regarding `c1ccc(N2CCN(c3nc(-c4ccccn4)nc4ccccc34)CC2)cc1`, the concentration for half-maximal inhibition (IC50) is 0.924 µM, the 90% effect concentration (IC90) came out at 1.62 µM and the CC50 amounted to 25.9 µM.
As for `CCOc1ccc2nc(/N=C/c3nc(-c4ccccc4)oc3O)sc2c1`, the 50% inhibitory concentration (IC50) is 6.82 µM and the 90% effect concentration (IC90) was more than 100 µM.
Consider `CCOC(=O)N1CCN(c2nc(N(c3ccccc3)c3ccccc3)nc(-n3ccnc3)n2)CC1`, for which the IC50 is 8.91 µM, the IC90 came to 11.3 µM and the CC50 was more than 40 µM.
On to `CCOC(=O)c1ccc(NC(=O)c2nc[nH]c2C(=O)N[C@H](C)c2ccccc2)cc1`, for which the IC50 is 6.38 µM, the concentration for an effect of 90% (IC90) worked out at 24.6 µM and the cytotoxic concentration (CC50) stood at 26 µM.
Regarding `Nc1ccc2c(c1)oc1ccccc12`, the IC50 was 1.96 µM and the 90% effect concentration (IC90) was more than 100 µM.
